Measured values reported in patent publication US20240376085A1 (Janssen Pharmaceutica NV, priority 2021, published 2024).

What was measured:
IL-17A : IL-17RA binding [1] = biological target: T1, IL-17A : IL-17RA binding (Homo sapiens, UniProt Q16552, K93Q); experiment: IL-17A(FLAG-tagged):IL-17RA(His-tagged) binding disruption Eu-HTRF assay, Protocol 1; details: FLAG-IL-17A 2.5 nM at 2x final concentration; average if tested more than once
T1 construct: Name: IL-17A-Flag
Summary of the method: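 IC50 came from a one-site competition fit of the acceptor/donor (665/620 nm) HTRF ratio. His-tagged IL-17RA, Eu-anti-FLAG and D2-anti-His were added after a 1 h rt compound preincubation with FLAG-tagged IL-17A dimer in PBS/0.01% Triton X-100, followed by 2 h at rt before reading.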

[2] = system: IL-17A-induced G-CSF production in human normal keratinocyte (NHK); experiment: NHK assay: IL-17A-induced G-CSF production in normal human keratinocytes; assay type: cell-based; details: Homo sapiens, Keratinocyte, 24 h, IL-17A 5 ng/mL, average if tested more than once
Summary of the method: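 Stimulus rhIL-17A 5 ng/mL final, premixed 1 h rt with compound; adult NHK, 5% FBS, 0.2% DMSO. Viability by CellTiter-Glo vs DMSO.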

IL-17A : IL-17RA binding [3] = biological target: T1, IL-17A : IL-17RA binding; experiment: IL-17A(FLAG-tagged):IL-17RA(His-tagged) binding disruption Eu-HTRF assay, Protocol 2; details: FLAG-IL-17A 1 nM at 2x final concentration; average if tested more than once
From the text: An antibody directed against the FLAG tag of IL-17A (SEQ ID NO: 1) is labeled with the HTRF donor chromophore (Europium-cryptate). IL-17A is present as a dimer that is “locked into” this quaternary structure due to the formation of loop-spanning […] disulfide bridges. The construct of IL-17RA used in the assay excludes the […] portion of the receptor and is fused to a C-terminal 10×His tag (SEQ ID NO:2). An antibody directed against the His tag of the IL-17RA chimera is labeled with the HTRF acceptor chromophore (“D2”). The fluorescence-resonance energy transfer (FRET) depends on the vicinity of the donor chromophore to the acceptor, and interruption of the binding between the IL-17A and IL-17RA causes the reduction/loss of FRET. Therefore, this assay allows to evaluate the compound effect on the binding IL-17A and IL-17RA by monitoring the fluorescence intensity of donor vs acceptor. The assay was run using either Protocol 1 or Protocol 2 as described below.
Protocol 2. 40 nl of 2-fold serial diluted compound solution for total 22 dilution points is added into each well of a 1536-well, white, low-volume, non-binding plate (Greiner #782904), then 2 μl of FLAG tagged IL-17A at 2× final concentration (1 nM) in solution of PBS+0.01% Triton-X100 is added to each well. The assay plate is briefly centrifuged then incubated for 1 h at rt. A mixed solution is prepared containing 2×5 nM 10HIS×IL-17RA, 2×2.5 nM Eu-anti-FLAG (CISBIO), 2×5 nM D2-anti-HIS (CISBIO) in PBS+0.01% Triton-X100+200 mM Potassium Fluoride (Sigma 60238) and 2 μl of mix is added to each well of the assay plate. The plate is briefly centrifuged then incubated for 2 h at rt. The HTRF intensities at the wavelength of donor (615 nm) and acceptor (665 nm) are measured using BMG Pherastar. The ratio between intensities at two wavelengths is calculated and plotted against the compound concentration and the data is fitted to a one-site competition model to yield IC50 of the compound.

T1 sequence (Q16552 with tags, fused parts or gaps K93Q): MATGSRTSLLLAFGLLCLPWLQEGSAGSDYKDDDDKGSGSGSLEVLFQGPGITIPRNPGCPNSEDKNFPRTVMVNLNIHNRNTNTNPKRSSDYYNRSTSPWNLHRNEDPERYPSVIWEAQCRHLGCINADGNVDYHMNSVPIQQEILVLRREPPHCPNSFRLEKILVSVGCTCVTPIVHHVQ

Structure (SMILES)	IC50 (IL-17A : IL-17RA binding [1]) [nM]	IC50 (IL-17A : IL-17RA binding [3]) [nM]	IC50 [2] [nM]
Cc1nonc1C(=O)N[C@H](c1nc2ccc([C@H](NC(=O)CC3CC(F)(F)C3)C3CC3)cc2[nH]1)[C@@H]1CCCC(F)(F)C1 [Example 246, N—((S)-(6-((R)-Cyclopropyl(2-(3,3-difluorocyclobutyl)acetamido)methyl)-1H-benzo[d]imidazol-2-yl)((R)-3,3-difluorocyclohexyl)methyl)-4-methyl-1,2,5-oxadiazole-3-carboxamide]	< 50		< 50
Cc1nonc1C(=O)N[C@H](c1nc2ccc([C@H](NC(=O)CC3CC(F)(F)C3)C3CC3)cc2[nH]1)[C@@H]1C[C@H]2C[C@H]2C1 [Example 254, N—((S)-((1R,3s,5S)-Bicyclo[3.1.0]hexan-3-yl)(6-((R)-cyclopropyl(2-(3,3-difluorocyclobutyl)acetamido)methyl)-1H-benzo[d]imidazol-2-yl)methyl)-4-methyl-1,2,5-oxadiazole-3-carboxamide]	< 50		> 100
CC(C)n1nccc1C(=O)N[C@H](c1nc2ccc([C@H](NC(=O)CC3CC(F)(F)C3)C3CC3)cc2[nH]1)[C@@H]1C[C@H]2C[C@H]2C1 [Example 255, N—((S)-((1R,3s,5S)-Bicyclo[3.1.0]hexan-3-yl)(6-((R)-cyclopropyl(2-(3,3-difluorocyclobutyl)acetamido)methyl)-1H-benzo[d]imidazol-2-yl)methyl)-1-isopropyl-1H-pyrazole-5-carboxamide]	50 to 100		< 50
Cc1nonc1C(=O)N[C@@H](COC1CC(F)(F)C1)c1nc2ccc([C@H](NC(=O)CC3CC(F)(F)C3)C3CC3)cc2[nH]1 [Example 256, N—((R)-1-(6-((R)-Cyclopropyl(2-(3,3-difluorocyclobutyl)acetamido)methyl)-1H-benzo[d]imidazol-2-yl)-2-(3,3-difluorocyclobutoxy)ethyl)-4-methyl-1,2,5-oxadiazole-3-carboxamide]	> 100		> 100
CC(C)n1nccc1C(=O)N[C@@H](COC1CC(F)(F)C1)c1nc2ccc([C@H](NC(=O)CC3CC(F)(F)C3)C3CC3)cc2[nH]1 [Example 257, N—((R)-1-(6-((R)-Cyclopropyl(2-(3,3-difluorocyclobutyl)acetamido)methyl)-1H-benzo[d]imidazol-2-yl)-2-(3,3-difluorocyclobutoxy)ethyl)-1-isopropyl-1H-pyrazole-5-carboxamide]	> 100		> 100
C[C@@H](NC(=O)CCC(F)(F)F)c1ccc2[nH]c([C@@H](NC(=O)c3cnn(CCC(F)(F)F)n3)[C@@H]3CCCC(F)(F)C3)nc2c1 [Example 265]	> 100		> 100
O=C(CC1CC(F)(F)C1)N[C@@H](c1ccc2[nH]c([C@@H](NC(=O)c3nonc3C3CC3)[C@H]3[C@@H]4CC(F)(F)C[C@@H]43)nc2c1)C1CC1 [Example 266, 4-Cyclopropyl-N—((S)-(5-((R)-cyclopropyl(2-(3,3-difluorocyclobutyl)acetamido)methyl)-1H-benzo[d]imidazol-2-yl)((1R,5S,6r)-3,3-difluorobicyclo[3.1.0]hexan-6-yl)methyl)-1,2,5-oxadiazole-3-carboxamide]	< 50		< 50

Continued, in another order:

IC50 (IL-17A : IL-17RA binding [1]) [nM]	IC50 (IL-17A : IL-17RA binding [3]) [nM]	Structure (SMILES)	IC50 [2] [nM]
< 50		Cc1nonc1C(=O)N[C@H](c1nc2ccc([C@H](NC(=O)CC3CC(F)(F)C3)C3CC3)cc2[nH]1)[C@H]1CCCC(F)(F)C1 [Example 247, N—((S)-(6-((R)-Cyclopropyl(2-(3,3-difluorocyclobutyl)acetamido)methyl)-1H-benzo[d]imidazol-2-yl)((S)-3,3-difluorocyclohexyl)methyl)-4-methyl-1,2,5-oxadiazole-3-carboxamide]	< 50
< 50		Cc1nonc1C(=O)N[C@H](c1nc2cc([C@H](NC(=O)CCC(F)(F)F)C3CC3)ccc2[nH]1)[C@@H]1CCCC(F)(F)C1 [Example 263, N—((S)-(5-((R)-Cyclopropyl(4,4,4-trifluorobutanamido)methyl)-1H-benzo[d]imidazol-2-yl)((R)-3,3-difluorocyclohexyl)methyl)-4-methyl-1,2,5-oxadiazole-3-carboxamide]	50 to 100
< 50		Cc1nonc1C(=O)N[C@H](c1nc2cc([C@@H](C)NC(=O)CCC(F)(F)F)ccc2[nH]1)[C@@H]1CCCC(F)(F)C1 [Example 264, N—((S)—((R)-3,3-Difluorocyclohexyl)(5-((R)-1-(4,4,4-trifluorobutanamido)ethyl)-1H-benzo[d]imidazol-2-yl)methyl)-4-methyl-1,2,5-oxadiazole-3-carboxamide]	> 100
< 50		CC(C)(OC[C@H](NC(=O)c1nonc1OCC(F)(F)F)c1nc2cc([C@H](NC(=O)CC3CC(F)(F)C3)C3CC3)ccc2[nH]1)C(F)(F)F [Example 267, N—((R)-1-(5-((R)-Cyclopropyl(2-(3,3-difluorocyclobutyl)acetamido)methyl)-1H-benzo[d]imidazol-2-yl)-2-((1,1,1-trifluoro-2-methylpropan-2-yl)oxy)ethyl)-4-(2,2,2-trifluoroethoxy)-1,2,5-oxadiazole-3-carboxamide]	< 50
< 50		CC(C)(OC[C@H](NC(=O)c1nocc1C1CC1)c1nc2cc([C@H](NC(=O)CC3CC(F)(F)C3)C3CC3)ccc2[nH]1)C(F)(F)F [Example 268, 4-Cyclopropyl-N—((R)-1-(5-((R)-cyclopropyl(2-(3,3-difluorocyclobutyl)acetamido)methyl)-1H-benzo[d]imidazol-2-yl)-2-((1,1,1-trifluoro-2-methylpropan-2-yl)oxy)ethyl)isoxazole-3-carboxamide]	50 to 100
< 50		C[C@@H](O[C@H](C)C(F)(F)F)[C@H](NC(=O)c1nonc1C1CC1)c1nc2ccc([C@H](NC(=O)C[C@H]3CC3(F)F)C3(C#N)CC3)cc2[nH]1 [Example 269, N-((1R,2R)-1-(6-((S)-(1-Cyanocyclopropyl)(2-((S)-2,2-difluorocyclopropyl)acetamido)methyl)-1H-benzo[d]imidazol-2-yl)-2-(((R)-1,1,1-trifluoropropan-2-yl)oxy)propyl)-4-cyclopropyl-1,2,5-oxadiazole-3-carboxamide]	< 50
	50 to 100	Cc1nonc1C(=O)N[C@H](c1nc2cc([C@@H](COC3CC3)NC(=O)C[C@H]3CC3(F)F)ccc2[nH]1)[C@@H](C)OC(C)(C)C(F)(F)F [Example 270, N-((1R,2R)-1-(5-((S)-2-Cyclopropoxy-1-(2-((S)-2,2-difluorocyclopropyl)acetamido)ethyl)-1H-benzo[d]imidazol-2-yl)-2-((1,1,1-trifluoro-2-methylpropan-2-yl)oxy)propyl)-4-methyl-1,2,5-oxadiazole-3-carboxamide]	50 to 100
	50 to 100	Cc1nonc1C(=O)N[C@H](c1nc2cc([C@@H](COC3CC3)NC(=O)CC3CC(F)(F)C3)ccc2[nH]1)[C@@H](C)OC(C)(C)C(F)(F)F [Example 271, N-((1R,2R)-1-(5-((S)-2-Cyclopropoxy-1-(2-(3,3-difluorocyclobutyl)acetamido)ethyl)-1H-benzo[d]imidazol-2-yl)-2-((1,1,1-trifluoro-2-methylpropan-2-yl)oxy)propyl)-4-methyl-1,2,5-oxadiazole-3-carboxamide]	< 50
	> 100	Cc1nonc1C(=O)N[C@H](c1nc2cc([C@@H](COC3CC3)NC(=O)CC3CC(F)(F)C3)ccc2[nH]1)[C@@H](C)O[C@@H](C)C(F)(F)F [Example 272, N-((1R,2R)-1-(5-((S)-2-Cyclopropoxy-1-(2-(3,3-difluorocyclobutyl)acetamido)ethyl)-1H-benzo[d]imidazol-2-yl)-2-(((S)-1,1,1-trifluoropropan-2-yl)oxy)propyl)-4-methyl-1,2,5-oxadiazole-3-carboxamide]	< 50
